Source: patent US5432058A, “Method for measuring human cholesterol absorption using metabolically stable isotopes” (priority 1992, dated 1995)
Several values for one entry are separate records, joined by “and”; a condition that tells them apart may be missing. Identical values can stand only once. Like-named read-outs stand apart in the source and are kept apart here.

Assays:
[1] = design: species or system rabbits; conditions: rabbit, in vivo
Experimental: [26,26,26,27,27,27]-^2 H-cholesterol shown if FIG. 2 was prepared by Dr. Eric Stohler of Biodesign, Inc. The deuterium in the labeled cholesterol is located on stable terminal methyl groups of the side chain. When both: ^13 C-cholesterol and ^2 H-cholesterols were given intravenously or orally to rabbits there was no change in the plasma ratio of the two cholesterols over one week.

[2] = Preparation of Intralipid infusate: filter passage and residual tracer in syringe and lines; format: physicochemical
Experimental: (§1) [23,24,25,26,27]-^13 C-cholesterol suitable for intra venous administration was prepared in a laminar flow hood. The labeled cholesterol was dissolved at 5 mg/ml in USP ethanol in a sterile container, water was added to 10% by volume in order to increase virucidal activity, and the solution was allowed to stand at room temperature for at least 6 hrs. The solvents were then sterilely removed and the cholesterol residue dissolved at 20 mg/ml in ethanol and passed through a 0.22 micron solvent-resistant filter. Aliquots were tested for sterility and dried aliquots for pyrogenicity using the Limulus assay, and the stock was kept frozen at -70° C. On the day of the experiment both the ^13 C-cholesterol and a small amount of 10% Intralipid were warmed to 37° C. and the ethanolic cholesterol was added dropwise to 4 volumes of Intralipid. After 5 minutes at 37° C. and 15 min. at room temperature the mixture was put through a 0.8 micron particulate filter. More than 94% of the labeled cholesterol passed through the filter. An aliquot containing approximately 15 mg. ^13 C-cholesterol was drawn into atared syringe and weighed. The syringe contents were injected over 5 minutes into a running saline infusion and the syringe was washed several times with saline.

[3] = Dual stable isotope cholesterol absorption study in healthy subjects (oral and intravenous tracers, plasma tracer ratio by GC/MS on day 3); format: in vivo, human; conditions: for Fa at 72 h: human, in vivo, po, 30 mg
Experimental: There is a paucity of information concerning cholesterol absorption in humans, and one prominent reason for this deficiency is the need to administer long-lived radioactive cholesterol tracers. To eliminate this hazard, we have developed a procedure, based on that of Zilversmit (Prof. Soc. Exp. Med. Biol. 140:862-865, 1972), employing stable isotopic tracers of cholesterol. One metabolically stable cholesterol tracer is administered orally and a second metabolically stable cholesterol tracer is administered intravenously on day 0. The ratio of the two tracers is determined after equilibration on about day 3 by gas chromatography-mass spectrometry (GC/MS) with selected ion monitoring. Ion current peaks corresponding to the first and second tracers are corrected for spillover From each other and from endogenous cholesterol. Percent cholesterol absorption is calculated as the ratio of the cholesterol tracers. The use of stable cholesterol isotopes for the study of cholesterol absorption is feasible, precise, safe and allows broad application of cholesterol absorption measurements in humans including women and children, thereby Facilitating clinical genetic studies in groups about which little current data is available.
There is a waiting period after the cholesterol tracers of this invention have been administered to a human subject. The waiting period allows the ingested cholesterol tracer to reach equilibrium in the subject's blood. The waiting period can range from 12 hours to about 5 days or more. However, it is preferred that the waiting period is from about 24 hours to about 96 hours. Following the waiting period, a blood sample is withdrawn from the subject and analyzed by GC/MS techniques to determine the relative amount of the two cholesterol tracers and the natural cholesterols in the sample. The GC/MS data is corrected to provide the actual relative amounts of the cholesterol tracers in the blood sample and a cholesterol absorption percentage is calculated based upon the amount of cholesterol tracers introduced into the body in relation to the amount in the blood samples.
Five healthy subjects (three men and two women, age 22-34) underwent two cholesterol absorption studies separated by 4-6 weeks. Out patient subjects received a National Cholesterol Education Program step I diet prepared in the metabolic kitchen of the Washington University Clinical Research Center for five days. Starting two days before testing and ending three days after testing. The metabolically stable cholesterols were given on day 0 with a meal containing 240 ml of whole milk as a source of fat to assure contraction of the gallbladder.
as §1, with “saline. […]” for “saline.”

[4] = humans, background; cited from earlier work

Compound	change in the plasma ratio of the two cholesterols [1]	labeled cholesterol passed through the filter ([2]; ethanolic cholesterol in 4 volumes of 10% Intralipid, 0.8 micron particulate filter)	solubilization of cholesterol ([2]; with use of Intralipid)	tracer cholesterol found in the syringe and intravenous lines ([2]; with use of Intralipid)	Fa at 72 h ([3]; mean of five healthy subjects, test 1, read-out: mean cholesterol absorption, Test 1) [%]	Fa at 72 h ([3]; mean of five healthy subjects, test 2, 4-6 weeks later, read-out: mean cholesterol absorption, Test 2) [%]	Fa at 72 h ([3]; test 1, five healthy subjects, read-out: cholesterol absorption, range between subjects) [%]	cholesterol absorption, Test 1 ([3]; individual subjects 1-5, oral ^2 H-cholesterol about 30 mg, i.v. ^13 C-cholesterol about 15 mg, plasma at three days, 4320 min)	cholesterol absorption, Test 2 ([3]; individual subjects 1-5, second study 4-6 weeks after Test 1, plasma at three days, 4320 min)	mean cholesterol absorption, Test 1 ([3]; mean of five healthy subjects, test 1, 4320 min) [%]	percent of cholesterol absorbed [4]
[2H]C([2H])([2H])C(CCC[C@@H](C)[C@H]1CC[C@H]2[C@@H]3CC=C4C[C@@H](O)CC[C@]4(C)[C@H]3CC[C@]12C)C([2H])([2H])[2H] [^2 H-cholesterol, [26,26,26,27,27,27]-^2 H-cholesterol]	no change										
C[C@H](C[13CH2][13CH2][13CH]([13CH3])[13CH3])[C@H]1CC[C@H]2[C@@H]3CC=C4C[C@@H](O)CC[C@]4(C)[C@H]3CC[C@]12C [^13 C-cholesterol, [23,24,25,26,27]-^13 C-cholesterol]	no change	More than 94%	quantitatively solubilized	less than 0.4%							
CC(C)CCC[C@@H](C)[C@H]1CC[C@H]2[C@@H]3CC=C4C[C@@H](O)CC[C@]4(C)[C@H]3CC[C@]12C [cholesterol]					59.3 ± 8.4	57.6 ± 8.2	47 to 71	59.4% and 62.2% and 70.5% and 47.4% and 57.1%	62.4% and 58.0% and 67.2% and 45.4% and 55.0%	59	15% to 75
